Results on two molecules are retold here after ChEMBL document CHEMBL2151024, “Synthesis and Biological Evaluation of a Biotinylated Paclitaxel With an Extra-Long Chain Spacer Arm” (ACS Med Chem Lett, 2012).

Calls of active or inactive are those of the source. The rule behind the calls is not given here.

Assay [1] concerns the target Tubulin (Sus scrofa, UniProt P02554+P02550). The assay is described as follows: Induction of porcine brain tubulin polymerization after 20 mins by Bradford assay.
A short description of assay [2]: Stabilization of microtubule by fluorescence microscopy.
Assay [3] can be described thus: Stabilization of microtubule using Cy3-streptavidin-tagged compound by fluorescence microscopy.

As for `CC(=O)O[C@H]1C(=O)[C@@]2(C)[C@H]([C@H](OC(=O)c3ccccc3)[C@]3(O)C[C@H](OC(=O)[C@H](O)[C@@H](NC(=O)c4ccccc4)c4ccccc4)C(C)=C1C3(C)C)[C@]1(OC(C)=O)CO[C@@H]1C[C@@H]2O` [PACLITAXEL], the EC50 (as a rule, the concentration giving half of the maximal effect) in assay [1] was 0.52 µM. For the same molecule, the outcome in assay [2] was Active.

Turning to `CC(=O)O[C@H]1C(=O)[C@]2(C)[C@@H](OC(=O)CCNC(=O)CCCCCNC(=O)CCCCCNC(=O)CCCC[C@@H]3SC[C@@H]4NC(=O)N[C@@H]43)C[C@H]3OC[C@@]3(OC(C)=O)[C@H]2[C@H](OC(=O)c2ccccc2)[C@]2(O)C[C@H](OC(=O)[C@H](O)[C@@H](NC(=O)c3ccccc3)c3ccccc3)C(C)=C1C2(C)C`, in assay [1], the EC50 was found to be 0.68 µM. In addition, the outcome in assay [3] and in assay [2] was Active.
